Reference: patent publication US20190328783A1, “A METHOD OF ENGINEERING PRODRUG-SPECIFIC HYPERSENSITIVE T-CELLS FOR IMMUNOTHERAPY BY GENE EXPRESSION” (CELLECTIS, priority 2016, published 2019)
Entries after “also recorded” stand apart in the source; their conditions may differ.

Experiments:
[1] = test system: primary T cells transfected with CDA-BFP mRNA; test: Viability by flow cytometry of primary T cells transfected with CDA-BFP mRNA, in presence of prodrug; format: cell-based, human; settings: increasing concentration (0 to 10 mM) for 48H; FIG. 1
Excerpt: FIG. 1: Analysis by FACS for BFP expression in T cells render hypersensitive to the prodrugs 5fdC and 5HmdC after CDA expression. mRNA encoding a chimeric construction consisting of CDA fused to a BFP reporter. A) Viability rate expressed in percentage: comparison between mock (T cells not transfected by the CDA expression plasmid)—represented in the graph by unfilled bar- and transfected T cells by the CDA expression plasmid—represented in the graph by filled bar-, when all cells are submitted to an increasing dose of the 5fdC prodrug (from 0 to 10 mM); B) The same than for A) excepted that the cells are submitted to an increasing dose of the 5HmdC prodrug (from 0 to 10 mM). […]
To test the ability of CDA expression to endow primary T cell with hypersensitivity to hypomethylated agents 5hmdC and 5FdC, primary T cells were transfected with 40 μg of mRNA encoding a chimeric construction consisting of CDA fused to a BFP reported via a 2A self-cleaving peptide (SEQ ID NO. 9). One day post transfection, cells were recovered and analyzed by flow cytometry for BFP expression.
Transfected cells were incubated in the presence of increasing concentration of 5hmdC or 5FdC for 48H. At the end of incubation, cell viability was determined by flow cytometry. […]

[2] = test system: dCK KO T cells expressing CDA-BFP; test: Viability by flow cytometry of dCK KO T cells transfected with CDA-BFP mRNA, in presence of prodrug; format: cell-based, human; settings: increasing concentration (0 to 10 mM) for 48H; FIG. 2
Experimental: FIG. 2: Analysis by FACS for BFP expression in T cells render hypersensitive to the prodrugs 5fdC and 5HmdC by combining CDA expression and inactivation of dCK gene by KO. mRNA encoding a chimeric construction consisting of CDA fused to a BFP reporter, and a KO inactivation of dCK is made by using TALE-nuclease as explained later. […]
To further investigate the ability of T cells to be sensitive to 5fdC, IC50 for this prodrug was determined on dCK KO and WT T cells. […] At the end of 5fdC incubation, viability of T cells was determined by FACS analysis.
FIG. 2 presents the results to show whether primary T cells having undergone dCK KO can still endow resistance to purine nucleotide analogues as well as with hypersensitivity toward 5hmDC and SFDC. One day post transfection, dCK KO T cells were recovered and analyzed by flow cytometry for BFP expression. […] As described earlier, transfected cells were incubated in the presence of increasing concentration of 5hmdC or 5FdC for 48H and at the end of incubation, cell viability was determined by flow cytometry.

Row | Structure (SMILES) | sensitivity (cell viability) of CDA-transfected T cells with respect to wild type cells [1] | prodrug hypersensitivity (cell viability) of dCK KO T cells transfected with CDA-BFP [2]
1 | Nc1nc(=O)n([C@H]2C[C@H](O)[C@@H](CO)O2)cc1C=O [5FdC, 5-formyl-2′-deoxycytidine] | increase of sensitivity | increase of specific prodrug hypersensitivity; also recorded: hypersensitive
2 | Nc1nc(=O)n([C@H]2C[C@H](O)[C@@H](CO)O2)cc1CO [5hmdC, 5-hydroxymethyl-2′-deoxycytidine] | increase of sensitivity | increase of specific prodrug hypersensitivity; also recorded: hypersensitive
